The target in one data set is T1, human CXCR3A (Homo sapiens, UniProt P49682).
T1 construct: expressed in transfected cells; host or cells: CHO-K1
T1 sequence (P49682 1-368): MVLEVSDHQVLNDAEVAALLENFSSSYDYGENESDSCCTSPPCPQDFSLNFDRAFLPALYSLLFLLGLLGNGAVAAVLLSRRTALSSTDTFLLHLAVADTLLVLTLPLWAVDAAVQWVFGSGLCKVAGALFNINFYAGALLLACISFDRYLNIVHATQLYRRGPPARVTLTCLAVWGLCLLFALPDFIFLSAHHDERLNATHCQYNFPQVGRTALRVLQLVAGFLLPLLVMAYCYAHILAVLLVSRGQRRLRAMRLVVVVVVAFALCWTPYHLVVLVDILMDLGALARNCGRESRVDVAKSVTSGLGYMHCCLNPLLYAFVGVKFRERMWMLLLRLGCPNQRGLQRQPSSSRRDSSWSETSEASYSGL
As to the kind of experiment: FLIPR assay (CXCL10-induced calcium signal in CHO-K1 cells). The class given is cell-based. Particulars: CHO-K1 cells expressing human CXCR3A coupled to Galpha(16); CXCL10 agonist 20 nM; mean values. The protocol:
A) FLIPR assay: The bioactivity of compounds is tested in a fluorometric imaging plate reader (FLIPR: Molecular Devices) using engineered CHO-K1 cells expressing the human CXCR3A (GenBank: AY242128) coupled to a G protein (Galpha(16)). Cells are plated the day prior to bioassay in F12 medium supplemented with 10% FBS and G418 and hygromycin antibiotics to maintain recombinant selection. […] Cells are washed free of excess dye and 60 microliter of wash buffer is added. Stock solutions of test compounds are made up at a concentration of 10 mM in DMSO, and serially diluted in dilution buffer to concentrations required for inhibition dose response curves. After a 10 minute incubation period at 37° C., 10 microliters of each compound dilution are transferred from a compound plate to the plate containing the recombinant cells in the FLIPR instrument according to the manufacturer's instructions. Following basal readings, 10 microliter CXCL10 agonist at a concentration of 20 nM (from Peprotech) is added, again using the FLIPR instrument. Changes in fluorescence are monitored before and after addition of the test compounds. Emission peak values above base level after CXCL10 addition are exported after base line subtraction. The program XLfit is used to fit the data to a single site dose response curve and to calculate IC50 values. The calculated IC50 values may fluctuate depending on the daily assay performance. Fluctuations of this kind are known to those skilled in the art.

Data set [1] can be described thus: Human liver microsome assay (metabolic stability). Particulars: human liver microsomes 0.5 mg/mL, compound 1 μM, 37° C., pH 7.4, NADPH-regenerating system. The class given is in vitro ADME. On the procedure:
Incubation with human liver microsomes was performed to assess metabolic stability at a single compound concentration of 1 μM. A 1 μL-aliquot of the compounds stock solutions in DMSO were added to 899 μL of 100 mM phosphate buffer (pH 7.4) containing the liver microsomes at a concentration of 0.5 mg/mL and the mixture was incubated at 37° C. in an Eppendorf thermomixer at 450 rpm. The reaction was initiated by addition of 100 μL of NADPH-regenerating system containing the glucose-6-phosphate dehydrogenase and at the pre-defined time points, 0, 1.5, 2.5, 5, 10, and 15 min, 100 μL of the incubation was transferred in 100 μL of ice-cold methanol to stop the reaction. Samples were centrifuged at 3220 g for 20 min at 4° C. and the supernatants were submitted to LC/MS-MS analysis.
Calculation of intrinsic clearance CLint:
Natural logarithm of remaining amount of compound was plotted as function of time and the slope of the line determined.
Elimination rate constant (k)=−slope
V=volume of incubation/amount of protein
For orientation: Liver microsomes are vesicles of endoplasmic reticulum, rich in cytochrome P450 enzymes.

The target of a further data set is T2, hERG K channel (Homo sapiens, UniProt Q12809).
T2 construct: host or cells: CHO
T2 sequence (Q12809 whole entry): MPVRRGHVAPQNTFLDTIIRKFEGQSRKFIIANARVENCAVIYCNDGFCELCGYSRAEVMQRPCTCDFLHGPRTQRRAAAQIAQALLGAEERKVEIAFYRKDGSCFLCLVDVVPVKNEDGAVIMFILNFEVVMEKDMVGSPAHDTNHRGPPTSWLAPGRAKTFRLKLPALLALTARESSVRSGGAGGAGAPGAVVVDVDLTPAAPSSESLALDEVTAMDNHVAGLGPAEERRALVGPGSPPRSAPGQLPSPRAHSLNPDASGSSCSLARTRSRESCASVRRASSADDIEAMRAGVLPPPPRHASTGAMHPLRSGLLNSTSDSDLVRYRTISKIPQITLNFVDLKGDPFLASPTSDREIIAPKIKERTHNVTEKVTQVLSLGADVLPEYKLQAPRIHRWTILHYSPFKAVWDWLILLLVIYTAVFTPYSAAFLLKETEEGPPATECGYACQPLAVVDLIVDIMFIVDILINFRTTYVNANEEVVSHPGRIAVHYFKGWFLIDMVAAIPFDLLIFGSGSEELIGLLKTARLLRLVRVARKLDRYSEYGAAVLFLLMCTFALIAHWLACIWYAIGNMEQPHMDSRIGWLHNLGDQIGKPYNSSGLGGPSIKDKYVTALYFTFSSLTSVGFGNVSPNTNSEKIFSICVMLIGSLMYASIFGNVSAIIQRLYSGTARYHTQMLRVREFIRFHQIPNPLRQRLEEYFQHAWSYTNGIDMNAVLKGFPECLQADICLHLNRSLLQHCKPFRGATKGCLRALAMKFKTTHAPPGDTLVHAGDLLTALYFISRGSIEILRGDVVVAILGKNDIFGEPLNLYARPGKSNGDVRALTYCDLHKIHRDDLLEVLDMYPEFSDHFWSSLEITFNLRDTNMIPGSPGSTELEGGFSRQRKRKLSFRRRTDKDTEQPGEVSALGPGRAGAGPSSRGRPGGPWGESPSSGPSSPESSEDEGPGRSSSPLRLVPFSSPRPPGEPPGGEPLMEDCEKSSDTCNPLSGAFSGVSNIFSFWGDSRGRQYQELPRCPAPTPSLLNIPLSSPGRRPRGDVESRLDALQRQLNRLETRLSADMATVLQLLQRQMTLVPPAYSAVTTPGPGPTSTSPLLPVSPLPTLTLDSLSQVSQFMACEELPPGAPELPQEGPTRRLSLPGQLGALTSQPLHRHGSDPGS
The experiment in a line: hERG Q-Patch assay. The class given is cell-based. The following applies: CHO cells expressing hERG, K+ tail current 3 min after application, mean of two or three experiments. On the procedure:
B) hERG Q-Patch assay: Compounds are evaluated for block of the hERG K channel using CHO cells stably expressing the hERG gene (accession number U04270, bSys, Witterswil. Switzerland) and the Patch robotic platform (Sophion, Ballerup, Denmark) in single-cell mode at room temperature. […] When the cells are ˜80% confluent (every 2-3 days), they are either split for further culture or used for electrophysiology. […] Cells are kept in suspension medium at 32-35° C. in the QPatch robot until use, at which time aliquots are transferred to the extracellular solution (in mM: NaCl 150; KCl 4; CaCl2 1.2; MgCl2 1; HEPES 10; pH 7.4 with NaOH) containing 0.3% v/v DMSO and applied to the test plates. K^+ currents are measured with the patch-voltage-clamp technique in the whole-cell configuration with the internal solution (in […]: KCl, 140; NaCl, 10; MgCl2, 1; HEPES, 10; EGTA, 5; pH=7.2 with KOH). […] K^+tail currents are produced from a holding voltage of −80 mV by a 500-ms depolarization to +20 mV followed by a 500-ms repolarization to −40 mV; tail current amplitudes are measured at the end of the repolarization to −40 mV. The pulse pattern is repeated every 10 sec during the experiment, baseline K^+ current is measured after 3 min in extracellular solution, test-solution containing compound is then applied, and K^+ current in presence of compound is measured 3 minutes after application to the cells.

pIC50: −log10 of the molar value.

Consider `Cc1nc(CO)n(CC(=O)N2CCN(c3sc(C(F)(F)F)nc3-c3cnc(C(F)(F)F)nc3)C[C@H]2C)n1` [Example 45, 2-(5-Hydroxymethyl-3-methyl-[1,2,4]triazol-1-yl)-1-{(R)-2-methyl-4-[2-trifluoromethyl-4-(2-trifluoromethyl-pyrimidin-5-yl)-thiazol-5-yl]-piperazin-1-yl}-ethanone], for which the pIC50 (usually the negative decadic logarithm of the IC50, by convention in mol/L) at human CXCR3A was 7.82. Moreover, the microsomal CLint (in general, the capacity of the preparation to metabolise the compound, expressed as a volume cleared per time) at 1 µM in data set [1] turned out to be 14 µL/min/mg. In addition, the “% block” value at hERG K channel (concentration 300 nM) worked out at 0%; on hERG K channel (concentration 3000 nM), 1%.
For `Cc1nc(C)n(CC(=O)N2CCN(c3sc(C(F)(F)F)nc3-c3cnc(C4CC4)nc3)C[C@H]2C)n1` [Example 33, 1-{(R)-4-[4-(2-Cyclopropyl-pyrimidin-5-yl)-2-trifluoromethyl-thiazol-5-yl]-2-methyl-piperazin-1-yl}-2-(3,5-dimethyl-[1,2,4]triazol-1-yl)-ethanone], in that order: 8.54, 7 µL/min/mg, 4% and 17%.
Turning to `Cc1nc(C)n(CC(=O)N2CCN(c3sc(C(F)(F)F)nc3-c3cnc(C(F)(F)F)nc3)C[C@@H]2C)n1` [Example 50, 2-(3,5-Dimethyl-[1,2,4]triazol-1-yl)-1-{(S)-2-methyl-4-[2-trifluoromethyl-4-(2-trifluoromethyl-pyrimidin-5-yl)-thiazol-5-yl]-piperazin-1-yl}-ethanone], the microsomal CLint at 1 µM in data set [1] is 11 µL/min/mg.
Consider `Cc1nc(C)n(CC(=O)N2CCN(c3sc(C(F)(F)F)nc3-c3ccc(C(F)(F)F)nc3)C[C@H]2C)n1` [Example 49, 2-(3,5-Dimethyl-[1,2,4]triazol-1-yl)-1-{(R)-2-methyl-4-[2-trifluoromethyl-4-(6-trifluoromethyl-pyridin-3-yl)-thiazol-5-yl]-piperazin-1-yl}-ethanone], for which the pIC50 at human CXCR3A was 8.44. In addition, the microsomal CLint at 1 µM in data set [1] turned out to be 4 µL/min/mg.
On to `CCOc1ncc(-c2nc(C(F)(F)F)sc2N2CCN(C(=O)Cn3nc(C)nc3C)[C@H](C)C2)cn1` [Example 20, 2-(3,5-Dimethyl-[1,2,4]triazol-1-yl)-1-{(R)-4-[4-(2-ethoxy-pyrimidin-5-yl)-2-trifluoromethyl-thiazol-5-yl]-2-methyl-piperazin-1-yl}-ethanone], for which the pIC50 on human CXCR3A was 8.24. Further, in data set [1], the microsomal CLint at 1 µM was found to be 8 µL/min/mg. The “% block” value on hERG K channel (concentration 300 nM) came out at 9%; at hERG K channel (concentration 3000 nM) it was 20%.
`CCOc1ncc(-c2nc(C(F)(F)F)sc2N2CCN(C(=O)Cn3nc(CC)nc3C)[C@H](C)C2)cn1` (single isomer, unassigned) [Example 18]: the pIC50 at human CXCR3A is 8.51. Moreover, the microsomal CLint at 1 µM in data set [1] worked out at 60 µL/min/mg. The results for the “% block” value at hERG K channel (concentration 300 nM) and at hERG K channel (concentration 3000 nM) were 3% and 13%, respectively.
Take `Cc1nc(C)n(CC(=O)N2CCN(c3sc(C(F)(F)F)nc3-c3cnc(OC(C)C)nc3)C[C@H]2C)n1` [Example 27, 2-(3,5-Dimethyl-[1,2,4]triazol-1-yl)-1-{(R)-4-[4-(2-isopropoxy-pyrimidin-5-yl)-2-trifluoromethyl-thiazol-5-yl]-2-methyl-piperazin-1-yl}-ethanone]: the pIC50 on human CXCR3A was 8.46. In addition, the microsomal CLint at 1 µM in data set [1] is 13 µL/min/mg. For the same compound, the “% block” value at hERG K channel (concentration 300 nM) stood at 2%; on hERG K channel (concentration 3000 nM) it was 6%.
For `Cc1nc(C)n(CC(=O)N2CCN(c3sc(C(F)(F)F)nc3-c3cnc(OC4CCC4)nc3)C[C@H]2C)n1` [Example 38, 1-{(R)-4-[4-(2-Cyclobutoxy-pyrimidin-5-yl)-2-trifluoromethyl-thiazol-5-yl]-2-methyl-piperazin-1-yl}-2-(3,5-dimethyl-[1,2,4]triazol-1-yl)-ethanone] the same measures were 8.64, 51 µL/min/mg, 5% and 11%.
For `Cc1nc(C)n(CC(=O)N2CCN(c3sc(C(F)(F)F)nc3-c3ccc(OC(F)(F)F)cc3)C[C@H]2C)n1` [Example 3, 2-(3,5-Dimethyl-[1,2,4]triazol-1-yl)-1-{(R)-2-methyl-4-[4-(4-trifluoromethoxy-phenyl)-2-trifluoromethyl-thiazol-5-yl]-piperazin-1-yl}-ethanone], the pIC50 on human CXCR3A was 8.01. The “% block” value at hERG K channel (concentration 300 nM) came out at 19%; on hERG K channel (concentration 3000 nM) it was 60%.
For `Cc1nc(C)n(CC(=O)N2CCN(c3sc(C(F)(F)F)nc3-c3ccc(F)cc3)C[C@H]2C)n1` [Example 6, 2-(3,5-Dimethyl-[1,2,4]triazol-1-yl)-1-{(R)-4-[4-(4-fluoro-phenyl)-2-trifluoromethyl-thiazol-5-yl]-2-methyl-piperazin-1-yl}-ethanone] the same measures were 7.19, 11% and 51%.
On to `CC[C@@H]1CN(c2sc(C(F)(F)F)nc2-c2cnc(C(F)(F)F)nc2)CCN1C(=O)Cn1nc(C)nc1C` [Example 51, 2-(3,5-Dimethyl-[1,2,4]triazol-1-yl)-1-{(R)-2-ethyl-4-[2-trifluoromethyl-4-(2-trifluoromethyl-pyrimidin-5-yl)-thiazol-5-yl]-piperazin-1-yl}-ethanone], for which the pIC50 at human CXCR3A is 9.22. In addition, in data set [1], the intrinsic clearance (microsomal CLint) at 1 µM came to 1 µL/min/mg. The entries for the “% block” value at hERG K channel (concentration 300 nM) and on hERG K channel (concentration 3000 nM) were 6% and 18%, respectively.
For the compound `Cc1nc(C(C)(C)O)nn1CC(=O)N1CCN(c2sc(C(F)(F)F)nc2-c2cnc(C(F)(F)F)nc2)C[C@H]1C` [Example 48, 2-[3-(1-Hydroxy-1-methyl-ethyl)-5-methyl-[1,2,4]triazol-1-yl]-1-{(R)-2-methyl-4-[2-trifluoromethyl-4-(2-trifluoromethyl-pyrimidin-5-yl)-thiazol-5-yl]-piperazin-1-yl}-ethanone], the pIC50 on human CXCR3A was 8.33. Further, the entries for the “% block” value on hERG K channel (concentration 300 nM) and on hERG K channel (concentration 3000 nM) were 1% and 2%, respectively.
For `Cc1nc(C)n(CC(=O)N2CCN(c3sc(C(F)(F)F)nc3-c3ccc(OC(C)C)cc3)C[C@H]2C)n1` [Example 2, 2-(3,5-Dimethyl-[1,2,4]triazol-1-yl)-1-{(R)-4-[4-(4-isopropoxy-phenyl)-2-trifluoromethyl-thiazol-5-yl]-2-methyl-piperazin-1-yl}-ethanone] the same measures were 7.80, 7% and 38%.
For `Cc1nc(C)n(CC(=O)N2CCN(c3sc(C(F)(F)F)nc3-c3cnc(OC4COC4)nc3)C[C@H]2C)n1` [Example 30, 2-(3,5-Dimethyl-[1,2,4]triazol-1-yl)-1-((R)-2-methyl-4-{4-[2-(oxetan-3-yloxy)-pyrimidin-5-yl]-2-trifluoromethyl-thiazol-5-yl}-piperazin-1-yl)-ethanone], in that order: 7.66, 1% and 6%.

These data come from patent publication US10259807B2, “1-(piperazin-1-yl)-2-([1,2,4]triazol-1-yl)-ethanone derivatives” (Idorsia Pharmaceuticals Ltd., priority 2013, dated 2019).
